This note sets out measurements from article PMC7221826, “5-Oxo-hexahydroquinoline Derivatives and Their Tetrahydroquinoline Counterparts as Multidrug Resistance Reversal Agents” (Molecules, 2020).

For one series, the system named is A-549. In words: MTT cell viability assay, A-549. To be noted: Homo sapiens, A549, 72 h, read-out: IC50 (µM) in Cultured Cells A-549. Format: cell-based, human. The source says:
(§1) Cell lines used for cytotoxicity assays included MCF-7 (human breast adenocarcinoma), A549 (human lung adenocarcinoma), K562 (human chronic myelogenous leukemia) and HEK-293 (human embryonic kidney) cells and were obtained from the Iranian Biological Resource Center, Tehran, Iran. MES-SA-DX5 multidrug resistant human uterine sarcoma, over-expressing P-gp and their parental non-resistant MES-SA cell lines were purchased from Sigma-Aldrich (St. Louis, MO, USA). All cells, except for HEK-293, were cultured in RPMI 1640 supplemented with 10% FBS and 100 units/mL penicillin-streptomycin at 37 °C in humidified air containing 5% CO2. HEK-293 cells were maintained in DMEM-F12 medium containing L-glutamine 2 mM supplemented with FBS and penicillin-streptomycin. MES-SA-DX5 cells were maintained in media containing 100 nM doxorubicin in order to ensure that only drug-resistant cells continue to grow.
(§2) Cytotoxicity of the test compounds were evaluated by MTT assay. In this method, reduction of MTT, a yellow tetrazolium salt to the purple formazan, by cellular dehydrogenase enzymes is determined as an index of cell viability. Cancer cells were seeded into 96-well plates (3–5 × 10^3 cells/well) and incubated for 24 h at 37 °C. Afterwards, four different concentrations of synthesized derivatives were added in triplicate and the cells were incubated at 37 °C for another 72 h, after which the media was replaced with MTT solution at a concentration of 0.5 mg/mL was added for MTT assay. After another 4h, formazan crystals were dissolved in 200 μL DMSO for 90 min and absorbance was measured at a wavelength of 570 nm with background correction at 650 nm using a microplate reader (model 680, Bio-Rad, Hercules, CA, USA) and IC50 for each compound was calculated with CurveExpert version 1.34 for Windows.

Another series deals with MES-SA. In words: MTT cell viability assay, MES-SA. The format is cell-based, human. To be noted: MTT; for IC50: Homo sapiens, MES-SA, 72 h, parental non-resistant, read-out: IC50 (µM) in Cultured Cells MES-SA.
Text: as §1, §2
On the technique in general: Formazan colour is commonly taken as a measure of viable cells.

The next series concerns K562. Nature of the series: MTT cell viability assay, K562. The format is cell-based, human. To be noted: Homo sapiens, K562, 72 h, read-out: IC50 (µM) in Cultured Cells K562.
Text: as §1, §2

Another series has as its target T1, P-gp (Homo sapiens, UniProt P08183).
T1 construct: MES-SA-DX5 is a resistant cell line, which overexpresses P-gp as a result of constant exposure to doxorubicin; host or cells: MES-SA-DX5 human uterine sarcoma cells
In words: MDR reversal assay: flow cytometric detection of Rhodamine123 efflux/accumulation in MES-SA-DX5 cells. The format is cell-based. To be noted: compounds at 5, 10 and 25 µM, 5 µM Rh123. As for the experimental part:
Rhodamine 123 (Rh123) is a well-known substrate of P-gp and it is readily pumped out of the cells by this ABC transporter. The amount of retained Rh123 in the cells indicates the efflux function of the target transporter. Flow cytometric analysis was used for assessment of intracellular Rh123 as previously described.
Briefly, a suspension of the multidrug resistant uterine sarcoma MES-SA-DX5 cells at a density of 5 × 10^5 cells/mL in growth medium was prepared. Four-hundred microliters (400 µL) of the synthesized compounds with final concentration of 5, 10, and 25 µM were added to 500 µL of the cell suspension. Verapamil was also tested as a positive control. After an incubation of 20 min, 50 µL of Rh123 at a final concentration of 5 µM was added and incubated for further 30 min at 37 °C. The cells were then centrifuged and washed twice with ice-cold PBS, and then resuspended in PBS and kept on ice. Rh123 accumulated in cells was then quantified by a FACSCalibur flow cytometer (Becton Dickinson, San Jose, CA, USA) with excitation and emission wavelengths of 488 and 530 nm, respectively. Geometric means of fluorescence intensity values were determined using Flowing Software (http://flowingsoftware.btk.fi/).
Accumulation of Rhodamine123 (Rh123), caused by inhibition of P-gp-mediated efflux, was determined by flow cytometry in the multidrug resistant uterine sarcoma MES-SA-DX5 cell line. Verapamil was used as a positive control. MES-SA-DX5 is a resistant cell line, which overexpresses P-gp as a result of constant exposure to doxorubicin. Alterations in the amount of the fluorescent Rh123 retained inside the MES-SA-DX5 cells can be plausibly related to the inhibition of the activity of P-gp efflux pump in the cells (Figure 1). The ratio of the geometric mean value of cells treated with synthesized compounds to the geometric mean value of the control untreated cells are show in Figure 2.
Figure 2 MDR reversal assessed by flow cytometric detection of Rhodamine123 efflux in MES-SA-DX5 cells. Cells were suspended in RPMI 1640 and treated with verapamil (Ver, positive control) or synthesized derivatives. After incubation for 20 min, 5 μM Rh123 was added, the cells were incubated for another […] at 37 °C and then centrifuged and washed twice with ice-cold PBS and resuspended in PBS. The fluorescence caused by the presence of Rh123 in cells was measured using a flow cytometer with excitation and emission wavelengths of 488 nm and 530 nm, respectively. The values represent the mean ± S.E.M. of 3–5 experiments. * The difference between treated and controlled cells are statistically significant (p ˂ 0.05).
Background: A flow cytometer gives signals particle by particle.

Another series deals with MES-SA-DX5. Nature of the series: MTT cell viability assay, MES-SA-DX5. Format: cell-based, human. To be noted: Homo sapiens, MES-SA/Dx5, 72 h, multidrug resistant, P-gp overexpressing, read-out: IC50 (µM) in Cultured Cells MES-SA-DX5.
Text: as §1, §2

In a further series the test system is MCF-7. Nature of the series: MTT cell viability assay, MCF-7. The format is cell-based, human. To be noted: Homo sapiens, MCF7, 72 h, read-out: IC50 (µM) in Cultured Cells MCF-7.
Text: as §1, §2

The subject of the next series is HEK-293. Nature of the series: MTT cell viability assay, HEK-293. To be noted: Homo sapiens, HEK293, 72 h, non-cancerous, read-out: IC50 (µM) in Cultured Cells HEK-293. The format is cell-based, human.
Text: as §1, §2

In the next series the test system is MES-SA-DX5 cells. Nature of the series: Cell cycle analysis by propidium iodide (PI)-RNase flow cytometry. To be noted: 24 h. Also on record: Sub G1: unit not given here. The format is cell-based, human. As for the experimental part:
The analysis of cells in different phases of cell cycle and sub-G1 was performed using propidium iodide (PI)-RNase assay by flow cytometry. MES-SA-DX5 cells were seeded in 12-well plates (1 × 10^6 cells/well) and treated with different concentrations of synthesized compounds for 24 h. The cells were then collected, washed with PBS, and fixed with 70% ethanol overnight at –20 °C. After at least 24 h, fixed cells were washed with PBS and subsequently stained with a DNA staining solution containing PI 20 μg/mL and RNase 200 μg/mL at room temperature for 30 min in the dark. Twenty thousand cells of each sample were analyzed using a BD FACSCalibur flow cytometer (BD Biosciences, USA) and the amount of the cells in sub-G1, G0/G1, S, and G2/M phases were estimated using CellQuest (Becton Dickinson, San Jose, CA, USA) software.
Therefore, it could be concluded that these compounds cause cytotoxicity in drug resistant MES-SA-DX5 cells by induction of apoptosis in these cells.
Figure 3 Effect of synthesized derivatives on cell cycle alterations in MES-SA-DX5 drug resistant cells. The cells in different phases of cell cycle were monitored using propidium iodide (PI)-RNase assay by flow cytometry. MES-SA-DX5 cells were seeded in 12-well plates (1 × 10^6 cells/well) and treated with different concentrations of synthesized compounds for 24 h. The cells were then collected, washed with PBS and fixed with 70% ethanol overnight at –20 °C. After at least 24 h, fixed cells were washed with PBS and subsequently stained with a DNA staining solution containing PI 20 μg/mL and RNase 200 μg/mL at room temperature for 30 min in the dark. Twenty thousand cells of each sample were analyzed using a FACS Calibur flow cytometer (BD Biosciences, USA). Representative histograms of cells treated with synthesized compounds are shown. An increase in sub-G1 phase cells could be observed after treatment with A1, A2, B1, and B2 compounds.

The structures appear in SMILES notation. Entries after “also recorded” stand apart in the source; their conditions may differ.

T1 sequence (P08183 whole entry): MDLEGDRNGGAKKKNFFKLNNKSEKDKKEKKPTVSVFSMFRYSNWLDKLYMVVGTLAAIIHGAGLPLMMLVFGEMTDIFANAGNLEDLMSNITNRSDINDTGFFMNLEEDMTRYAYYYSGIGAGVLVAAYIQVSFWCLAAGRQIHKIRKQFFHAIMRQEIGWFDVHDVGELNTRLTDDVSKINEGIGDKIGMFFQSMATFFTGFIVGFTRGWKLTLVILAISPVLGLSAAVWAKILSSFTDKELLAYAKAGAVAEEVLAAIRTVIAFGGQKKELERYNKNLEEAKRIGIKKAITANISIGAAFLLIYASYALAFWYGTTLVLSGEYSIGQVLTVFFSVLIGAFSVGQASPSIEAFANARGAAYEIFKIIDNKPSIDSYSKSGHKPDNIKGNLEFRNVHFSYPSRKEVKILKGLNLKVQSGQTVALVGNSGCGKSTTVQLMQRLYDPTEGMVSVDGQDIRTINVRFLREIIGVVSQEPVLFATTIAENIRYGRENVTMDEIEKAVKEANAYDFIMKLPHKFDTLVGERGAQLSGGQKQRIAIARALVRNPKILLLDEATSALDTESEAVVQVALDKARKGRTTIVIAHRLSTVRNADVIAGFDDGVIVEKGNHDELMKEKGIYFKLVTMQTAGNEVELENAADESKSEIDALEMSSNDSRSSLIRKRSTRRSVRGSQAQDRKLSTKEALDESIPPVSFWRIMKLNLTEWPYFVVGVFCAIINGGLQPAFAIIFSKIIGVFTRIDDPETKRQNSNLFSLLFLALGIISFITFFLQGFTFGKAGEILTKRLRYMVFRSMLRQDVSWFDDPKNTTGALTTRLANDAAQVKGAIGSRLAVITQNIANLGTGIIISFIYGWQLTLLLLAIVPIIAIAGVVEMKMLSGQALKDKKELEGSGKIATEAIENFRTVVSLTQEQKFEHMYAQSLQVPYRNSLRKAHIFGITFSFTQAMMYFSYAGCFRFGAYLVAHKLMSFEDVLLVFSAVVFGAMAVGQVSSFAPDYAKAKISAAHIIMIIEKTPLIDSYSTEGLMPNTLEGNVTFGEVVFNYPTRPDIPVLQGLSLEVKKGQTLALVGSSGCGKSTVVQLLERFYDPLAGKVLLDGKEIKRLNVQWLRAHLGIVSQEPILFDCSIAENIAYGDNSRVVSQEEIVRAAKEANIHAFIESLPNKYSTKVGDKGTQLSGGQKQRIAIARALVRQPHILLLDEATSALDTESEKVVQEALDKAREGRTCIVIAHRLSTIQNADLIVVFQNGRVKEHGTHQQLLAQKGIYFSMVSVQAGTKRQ

As to `Cc1nc(NC(=O)c2c(C)nc3c(c2-c2ccc(Cl)cc2Cl)C(=O)CCC3)cs1` [Compound B1, 4-(2,4-Dichlorophenyl)-2-methyl-N-(2-methylthiazol-4-yl)-5-oxo-5,6,7,8-tetrahydroquinoline-3-carboxamide], the melting point – broadly, the temperature, or range, at which the solid turns liquid – amounted to 248 °C. In addition, the IC50 (in general, the midpoint of a concentration-inhibition curve) in the series on A-549 came out at 60 ± 3 µM. The IC50 in the series with MES-SA is 55.6 ± 2.4 µM. In addition, the IC50 in the series on K562 was determined as 6.7 ± 0.6 µM. Further, the “P-gp inhibitory activity (Rh123 accumulation)” value on P-gp is recorded as “significantly blocked P-gp efflux”. Besides, the IC50 in the series with MES-SA-DX5 was determined as 39.8 ± 1.6 µM. Besides, in the series on MCF-7, the IC50 is 47.1 ± 2.1 µM. Also, the IC50 in the series on HEK-293 came to 39.9 ± 5.4 µM. In the series on MES-SA-DX5 cells (10 µM), the G0/G1 stood at 49.10 ± 3.7, the G2/M was 29.03 ± 2.1, the S is 21.27 ± 2.1 and the “Sub G1” value turned out to be 0.64 ± 0.1. In the series with MES-SA-DX5 cells (25 µM), the G0/G1 was 51.13 ± 2.4, the G2/M was determined as 27.03 ± 0.6, the S worked out at 20.90 ± 2.0 and the “Sub G1” value came out at 0.91 ± 0.0. The S in the series on MES-SA-DX5 cells (100 µM) was 25.17 ± 0.7.
Take `Cc1nc(NC(=O)c2c(C)nc3c(c2-c2ccc(Br)cc2)C(=O)CCC3)cs1` [Compound B2, 4-(4-Bromophenyl)-2-methyl-N-(2-methylthiazol-4-yl)-5-oxo-5,6,7,8-tetrahydroquinoline-3-carboxamide]: the melting point was found to be 261 °C. In the series on A-549, the IC50 is 86.8 ± 5 µM. In the series on MES-SA, the IC50 is more than 100 µM and the “effect against parental non-resistant MES-SA cells” value is recorded as “did not show any effect”. In addition, in the series on K562, the IC50 was 10.1 ± 1.5 µM. In addition, the “P-gp inhibitory activity (Rh123 accumulation)” value at P-gp is reported as “significantly blocked P-gp efflux; also recorded: highest P-gp inhibitory activities”. The IC50 in the series on MES-SA-DX5 is 43.6 ± 2.8 µM. Moreover, the IC50 in the series with MCF-7 was 77.7 ± 8.7 µM. For the same compound, the IC50 in the series on HEK-293 was more than 50 µM. Besides, in the series with MES-SA-DX5 cells (10 µM), the G0/G1 is 53.00 ± 3.6, the G2/M amounted to 24.13 ± 2.4, the S amounted to 21.80 ± 1.5 and the “Sub G1” value is 0.96 ± 0.1. Further, in the series on MES-SA-DX5 cells (25 µM), the G0/G1 came to 55.83 ± 2.6, the G2/M was 22.23 ± 1.4, the S was 20.30 ± 1.7 and the “Sub G1” value is given as 1.57 ± 0.4. Further, in the series with MES-SA-DX5 cells (100 µM), the G0/G1 is recorded as 47.00 ± 0.6, the G2/M worked out at 29.27 ± 1.8 and the S was found to be 19.48 ± 1.8.
